This is an account of results in patent US5459143A, “N,N-disubstituted piperazines” (Bayer Aktiengesellschaft, priority 1993, dated 1995).

For assay [1], the system named is monocyte-free human T cells. Put plainly: Inhibition of 5-HT-dependent T cell proliferation. In kind it is cell-based. The conditions noted are these: PWM (1:200) and 5-HT (100 μM) stimulated T cells, 3H-thymidine incorporation on day 7, tested at 33 μM-0.1 μM. The text has this:
The in vitro activity of the compounds according to the invention results from their capability to inhibit T cell proliferation, which is previously stimulated by serotonin.
Inhibition of 5-HT-dependent T cell proliferation
Peripheral mononuclear blood cells (PBMC) are obtained from the buffy coat of the blood of healthy subjects. After isolation by means of isolymph gradients (Pharmacia), the PBMC are washed twice and used directly. Purified T cells are obtained by E rosette formation with sheep erythrocytes [cf. Blue, M. -L., J. F. Daley, H. Levine, K. A. Craig and S. F. Schlossmann, 1986, Biosynthesis and surface expression of T8 by peripheral blood T4+ cells in vitro, J. Immunol. 137, 1202]. Monocytes are partially removed by adhesion to tissue culture plates or flasks. PBMC, T cells or purified T cells (depleted in monocytes) at 5×10^5 /ml, 100 μl/well are cultured in RPMI 1640 medium with 10% fetal calf serum (GIBCO) and L-glutamine in 96-well microculture plates (Becton-Dickinson) under a 5% CO2 atmosphere at 37° C. for 7 days. The cultures are treated with 1 μCi of ^3 H-thymidine for 6 h on the 7th day and collected on filter paper, and the incorporated radioactivity is determined by means of liquid scintillation counting.
The test substances are dissolved in 10 mM HCl in order to achieve a final concentration of 1 mM in each case. The compounds are diluted serially 3× with medium in order to obtain a final concentration between 33 μM-0.1 μM. PWM (1:200, pokeweed mitogen) and 5-HT (100 μM, serotonin), which contain the test substances, are added to monocyte-free human T cells. The positive control (maximum proliferation) is obtained from cultures containing T cells, PWM and 5-HT. The negative control (minimal proliferation) is obtained from cultures containing T cells and PWM without 5-HT. The inhibitory activity of the test substances is expressed as the IC50 in μM.

For assay [2], the system named is Lewis rats. As to the kind of experiment: Adjuvant arthritis model in the rat. The conditions noted are these: Freund's adjuvant arthritis, malleolus diameter day 16 vs day 0, dosing on days 0, 1, 2, 5, 7, 9, 12 and 14. Type of assay: in vivo. The protocol: Adjuvant arthritis model in the rat
Freund's adjuvant (FA) is prepared by addition of 10 mg/ml of heat-killed Mycobacterium butyricum to extra-heavy mineral oil. Lewis rats receive a 0.1 ml injection of FA (1 mg/animal) subcutaneously in the right hind paw. An acute inflammation takes place there, which is characterized by reddening, edema and a predominant neutrophilic cell infiltration (primary reaction). Tumescent areas in the treated paw on day 5 are followed between day 10-12 by an increase in the swelling (chronic inflammatory reaction) and the occurrence of a swelling in the opposite untreated paw (secondary immune response).
The cell infiltration of the chronic inflammation and the second immune response are mainly mononuclear, which indicates the presence of T-cell mediated immunity. The animals are observed daily, and the swelling is measured in millimeters on days 12 and 16 using a hand-adjustable micrometer. The swelling reaches its peak on the 16th day, on which the animals are sacrificed and tissue samples are taken for histological evaluation.
The extent of the swelling is determined by calculation of the greatest difference in the malleolus diameter between the 16th and the 0th day.
The animals receive the compounds according to the invention in a suspension of 5% polyethylene glycol and 0.5% Tween 80 in phosphate buffer solution p.o. or i.p. on days 0, 1, 2, 5, 7, 9, 12 and 14 [cf. for this purpose L. Sokoloff, 1984, Int. Rev. Exp. Pathol. 26, 107; M. E. J. Bittingham et al., 1989, J. Exp. Med. 171, 339; K. M. Connolly et al., 1989, Agents and Actions 27, 328].

With `O=C1C2C3c4ccccc4C(c4ccccc43)C2C(=O)N1CCCN1CCN(C(c2ccc(F)cc2)c2ccc(F)cc2)CC1` (centres unmarked) [Example 1], the IC50 in assay [1] is more than 10000 nM.

Regarding `O=C1C2C3c4ccccc4C(c4ccccc43)C2C(=O)N1CCCN1CCN(c2ncccn2)CC1` (centres unmarked) [Example 3], in assay [1], the IC50 was more than 10000 nM.

Turning to `O=C1C2C3c4ccccc4C(c4ccccc43)C2C(=O)N1CCCN1CCN(C(c2ccccc2)c2ccccc2)CC1` (centres unmarked) [Example 4], the IC50 in assay [1] was more than 10000 nM.

`O=C1C2C3c4ccccc4C(c4ccccc43)C2C(=O)N1CCCN1CCN(CCc2ccccc2C(F)(F)F)CC1` (centres unmarked) [Example 5] came in with an IC50 in assay [1] of 2000 nM. In addition, the “Inhibition of the swelling in % after administration of 10 mg/kg i.p.” value in assay [2] was found to be 24%.

The molecule `CC(C)(C)c1ccc(CN2CCN(CCCN3C(=O)C4C5c6ccccc6C(c6ccccc65)C4C3=O)CC2)cc1` (centres unmarked) [Example 6] yielded a half-inhibitory concentration (IC50) in assay [1] of 3000 nM. Also, in assay [2], the “Inhibition of the swelling in % after administration of 10 mg/kg i.p.” value was 24%.

Take `O=C1C2C3c4ccccc4C(c4ccccc43)C2C(=O)N1CCCN1CCN(C(c2ccccc2)c2ccc(Cl)cc2)CC1` (centres unmarked) [Example 8]: half-maximal inhibition in assay [1] (IC50) required 50000 nM.

As for `O=C1C2C3c4ccccc4C(c4ccccc43)C2C(=O)N1CCCN1CCN(C2CCCC2)CC1` (centres unmarked) [Example 10], in assay [1], half-maximal inhibition (IC50) was put at 30000 nM.

As for `Fc1ccc(C(c2ccc(F)cc2)N2CCN(CCCN3CC4C5c6ccccc6C(c6ccccc65)C4C3)CC2)cc1` (centres unmarked) [Example 13], the “Inhibition of the swelling in % after administration of 10 mg/kg i.p.” value in assay [2] is listed as 2%.

In assay [1], `c1cnc(N2CCN(CCCN3CC4C5c6ccccc6C(c6ccccc65)C4C3)CC2)nc1` (centres unmarked) [Example 15] displayed an IC50 of 2000 nM.

In the case of `FC(F)(F)c1ccccc1CCN1CCN(CCCN2CC3C4c5ccccc5C(c5ccccc54)C3C2)CC1` (centres unmarked) [Example 16], in assay [1], it took 5000 nM to reach half-maximal inhibition (IC50). For the same molecule, the “Inhibition of the swelling in % after administration of 10 mg/kg i.p.” value in assay [2] amounted to 13%.

In assay [1], `c1cnc(N2CCN(CCCCN3CC4C5c6ccccc6C(c6ccccc65)C4C3)CC2)nc1` (centres unmarked) [Example 17] registered an IC50 of more than 10000 nM.

For the molecule `CC(C)(C)c1ccc(CN2CCN(CCCN3CC4C5c6ccccc6C(c6ccccc65)C4C3)CC2)cc1` (centres unmarked) [Example 18], inhibition in assay [1] was half-maximal at 2000 nM (IC50).

In assay [1], `c1ccc2c(c1)C1c3ccccc3C2C2CN(CCCN3CCN(C4CCCCCC4)CC3)CC12` (centres unmarked) [Example 19] displayed a concentration for half-maximal inhibition (IC50) of 5000 nM.

`CC12c3ccccc3C(c3ccccc31)C1CN(CCCN3CCN(C(c4ccccc4)c4ccccc4)CC3)CC12` (centres unmarked) [Example 20] came in with an IC50 in assay [1] of 500 nM. Besides, in assay [2], the “Inhibition of the swelling in % after administration of 10 mg/kg i.p.” value is recorded as 79%.

Molecule `c1ccc(C(c2ccccc2)N2CCN(CCCN3CC4C5c6ccccc6C(c6ccccc65)C4C3)CC2)cc1` (centres unmarked) [Example 21] gave an IC50 in assay [1] of 500 nM. Besides, the “Inhibition of the swelling in % after administration of 10 mg/kg i.p.” value in assay [2] is recorded as 0.5%.

`Fc1ccc(C(CCCN2CCN(CCCN3CC4C5c6ccccc6C(c6ccccc65)C4C3)CC2)c2ccc(F)cc2)cc1` (centres unmarked) [Example 23] yielded an IC50 in assay [1] of 100 nM.

As for `c1ccc2c(c1)C1c3ccccc3C2C2CN(CCCN3CCN(C4CCCC4)CC3)CC12` (centres unmarked) [Example 24], the IC50 in assay [1] was found to be 6000 nM.

Regarding `Clc1ccc(C(c2ccccc2)N2CCN(CCCN3CC4C5c6ccccc6C(c6ccccc65)C4C3)CC2)cc1` (centres unmarked) [Example 26], the IC50 in assay [1] is 1000 nM.

Usually IC50 stands for the concentration needed to halve the response being measured. High values mean weaker potency in that assay, low ones greater potency in that assay.
